Reference: US6716628B2, “Chondrogenesis promoters and indolin-2-one derivatives” (Chugai Seiyaku Kabushiki Kaisha, priority 1999, dated 2004)

How the values were obtained:
[1] = system: common mouse chondrocyte and adipocyte precursor cell line (CL-1); assay: Uptake of 35S-labeled sulfuric acid into CL-1; assay type: cell-based; details: 10 μmol/L (A and F also 1 or 5 μmol/L), 48 h culture
rat knee joints = assay: Chondrogenesis promoting effect with administration into rat knee joints; assay type: in vivo; details: 1 mmol/L, 50 μL per day into right knee joint for 3 weeks
Experimental: A 27G injection needle and 1 mL syringe (both by Terumo Corp.) were used to administer 1 mmol/L of “compound A” (dissolved in 50% DMSO dimethylsulfoxide)-physiological saline solution; DMSO by Junsei Chemical Corp., physiological saline by Otsuka Pharmaceutical Corp.) into the right knee joint of 10-week-old male SD rats (Nihon Charles River Corp.) at a dosage of 50 μL per day for 3 weeks.
Another test group was administered 50% DMSO-physiological saline (by Junsei Chemical Corp. and Otsuka Pharmaceutical Corp., respectively) in the same manner as a vehicle control.
After 3 weeks of daily administration, the rats were autopsied, and the distance between lateral and medial attachment sites of collateral ligament of the right femur was measured with calipers (Mitsutoyo Corp.) to determine the width of the femoral knee joint. Then, in the same manner as Example 1, tissue samples were prepared and stained with 0.3% Safranin O (Merck Co., Ltd.) and observed under a microscope (magnification: 10× object lens, product of Nihon Kogaku Corp.).

[2] = system: common mouse chondrocyte and adipocyte precursor cell line (CL-1); assay: Differentiation of CL-1 into chondrocytes, alcian blue/oil red O double staining; assay type: cell-based; details: 10 μmol/L, 7 days after confluency, vs vehicle control
Experimental: […] (WO98/39414) were cultured in a 4-well chamber slide (Nunc Corp.) to a cell density of 5000/cm^2. The medium used was A-MEM (GIBCO Corp.) containing 100 U/mL of penicillin (Meiji Seika Co., Ltd.), 100 μg/mL of streptomycin (Banyu Pharmaceutical Corp.) and 10% fetal bovine serum (INTERGEN Corp.). When the CL-1 cells reached confluency, compound A was added to a final concentration of 10 μmol/L, with further addition when the medium was exchanged 3 times a week during culturing for 7 days.
A slide was also prepared with ethanol (Junsei Chemical Corp.) to a final concentration of 1% in the medium as a vehicle control. On the 7th day after confluency, the plates were collected, the CL-1 cell layer was double-stained with alcian blue and oil red O, and differentiation to chondrocytes or adipocytes was observed. After culturing was completed, the cell layer was fixed for one hour at room temperature with a 4% paraformaldehyde solution (Wako Pure Chemical Industries) and then washed with 0.1N hydrochloric acid and stained overnight with an aqueous solution (pH 1.0) of 1% alcian blue (EM Science Corp.). […]

[3] = system: rat primary culture articular chondrocytes; assay: Uptake of 3H-labeled thymidine (cell growth); assay type: cell-based; details: 10 μmol/L of compound, vs control solvent
Experimental: Articular chondrocytes were trimmed from the femoral knee joint of 6-week-old male SD rats (Nihon SLC Corp.) using a scalpel, and then digested in 0.3% collagenase (WORTHINGTON Corp.) and cultivated (Calcif. Tissue Int. 19:179-187,1975).
Uptake of ^3H-labeled thymidine (Amersham Corp.) was measured to determine the cell growth. For the measurement, the isolated articular chondrocytes were cultured in a 96-well cell culturing plate (FALCON Corp.) to a cell density of 10,000 per well. The medium used was an equivalent mixture of Dulbecco MEM containing fetal bovine serum (final concentration: 10%), 100 U/mL of penicillin (Meiji Seika Co., Ltd.) and 100 μg/mL of streptomycin (Banyu Pharmaceutical Corp.), and Ham F-12 medium (both by GIBCO Corp.). After 60-70% of the cells reached confluency, the medium was exchanged with one having a fetal bovine serum concentration of 0.3% and culturing was carried out overnight. On the following day, the medium was exchanged with the same type also containing compound A at a final concentration of 0.1, 1.0 or 10 μmol/L and 0.3% fetal bovine serum. […] The filter paper was soaked with plastic scintillator (Wallac Corp.), and the radioactivity was measured with a scintillation counter (Wallac Corp.). […]

[4] = system: common mouse chondrocyte and adipocyte precursor cell line (CL-1); assay: Uptake of 35S-labeled sulfuric acid into CL-1; assay type: cell-based; details: 10 μmol/L (A and F also 1 or 5 μmol/L), 48 h culture, uptake in final 24 h
Experimental: The above-mentioned cell line CL-1 was cultured in a 96-well cell culturing plate (Wallac Corp.) for a liquid scintillation counter (Wallac Corp.) to a cell density of 1000 per well. The medium used was α-MEM (GIBCO Corp.) containing 100 U/mL of penicillin (Meiji Seika Co., Ltd.), 100 μg/mL of streptomycin (Banyu Pharmaceutical Corp.) and 10% fetal bovine serum (INTERGEN Corp.). When the CL-1 cells reached confluency, the medium was exchanged with one containing 10 μmol/L of compounds A, B, C, D, E, F and G, and after 24 hours, ^35S-labeled sulfuric acid was added at 0.5 μCi per well and culturing was continued. For compounds A and F, a medium was also prepared with a concentration of 1 or 5 μmol/L. After 24 hours, the medium was discarded and the cell layer was fixed for 2 hours at room temperature using 0.2 mL of 5% paraformaldehyde (0.1 mol/L phosphate buffer solution (pH 7.4, Wako Pure Chemical Industries) containing 0.4% cetylpyridinium chloride (Wako Pure Chemical Industries). After discarding the fixing solution, it was washed once with the same solution and the washed solution was discarded. After adding 0.1 mL of scintillator (Wallac Corp.) to the cell layer and stirring, the radioactivity was measured with a scintillation counter (Wallac Corp.).

Compound: CCOC(CN1C(=O)[C@](CC(=O)Nc2ccc(C)cc2)(NC(=O)Nc2ccc(C)cc2)c2ccccc21)OCC [Compound A, (+)-1-(2,2-diethoxyethyl)-3-((4-methylphenyl)aminocarbonylmethyl)-3-(N′-(4-methylphenyl)ureido)indolin-2-one]
- differentiation of CL-1 to adipocytes [1]: clearly suppress
- femoral knee joint width (rat knee joints; 10-week-old male SD rats, vs vehicle control): significantly larger
- histological observation of femoral knee joint (Safranin O) (rat knee joints; rats): Safranin O-positive accelerated formation of cartilage tissue
- differentiation of CL-1 to adipocytes (oil red O) [2]: suppressed
- differentiation of CL-1 to chondrocytes (alcian blue) [2]: clearly promoted
- uptake of 3H-labeled thymidine [3]: significantly increased
- differentiation of CL-1 to chondrocytes (from 35S-labeled sulfuric acid uptake) [4]: clearly promote
